What was measured:
phospholipase D1 = test: PLD activity in HCT116 cells ([3H]phosphatidylbutanol, TLC); type: cell-based, human; conditions: compound 10 μM, cells without the compound = 100%
Procedure: To evaluate the inhibitory effect of the compounds according to the present invention on phospholipase D1 activity, experiments were conducted as follows.
For the analysis of PLD activity in cells, human colon cancer cell line (HCT116) was cultured in a 6-well plate at 37° C. for 24 hours, washed twice with phosphate-buffered saline (PBS), and then replaced with medium containing [^3H]myristate and cultured for 24 hours. After the culture, the cells were washed three times with PBS, treated with 1-butanol, and the drug was added to a final concentration of 10 μM. The cells were trypsinized and suspended, and the amount of [^3H]phosphatidylbutanol produced in the cell suspension was measured and evaluated for PLD activity using thin layer chromatography (TLC), and the results are shown in Table 1 below.
The Remaining activity % at 10 μM in Table 1 is calculated by setting the amount of [^3H]phosphatidylbutanol produced in cells without the compound as 100% and calculating the amount of [^3H]phosphatidylbutanol produced in cells treated with the compound as a percentage. Therefore, the lower the value of Remaining activity %, the higher the PLD inhibitory activity.

[1] = test system: human colon cancer cell line (DLD1); test: Apoptosis (annexin V-FITC) in cancer cells; type: cell-based; conditions: DLD1, 5-FU 10 μM, 48 hours
Procedure: (§1) To observe changes in apoptosis, normal colon epithelial cells (FHC) and human colon cancer cell line (DLD1) were treated with compound 1-91 at 2 μM and the positive control 5-FU at 10 μM. After 48 hours, the cells were washed with PBS, harvested, and analyzed for apoptosis using an annexin V-FITC apoptosis detection kit.

[2] = test system: normal colon epithelial cells (FHC); test: Apoptosis (annexin V-FITC) in normal cells; type: cell-based; conditions: 5-FU 10 μM, 48 hours
Procedure: as §1

[3] = test system: normal colon epithelial cells (FHC); test: Cell cycle analysis (BrdU/7-AAD flow cytometry) in normal cells; type: cell-based; conditions: 5-FU 10 μM, 48 hours
Procedure: (§2) To observe cell cycle changes, normal colon epithelial cells (FHC) and human colon cancer cell line DLD1 were treated with compound 1-91 at 2 μM and the positive control 5-FU at 10 μM. After 48 hours, the cells were washed with PBS, harvested, and sequentially treated with bromodeoxyuridine (BrdU) and 7-aminoactinomycin D (7-AAD). The cells were then stained with an anti-BrdU antibody conjugated with fluorescein isothiocyanate (FITC) and analyzed using a flow cytometer.

[4] = test system: human colon cancer cell line DLD1; test: Cell cycle analysis (BrdU/7-AAD flow cytometry) in cancer cells; type: cell-based; conditions: DLD1, 5-FU 10 μM, 48 hours
Procedure: as §2

Row | SMILES | Remaining activity % at 10 μM (phospholipase D1) | also measured
1 | O=C(Nc1cccc(F)c1)c1cc2cc(F)ccc2[nH]1 [Example 1-98, 5-fluoro-N-(3-fluorophenyl)-1H-indole-2-carboxamide] | 76.66% | 
2 | O=C(Nc1cc(C(F)(F)F)cc(C(F)(F)F)c1)c1cc2cc(Cl)ccc2[nH]1 [Example 1-99, N-(3,5-bis(trifluoromethyl)phenyl)-5-chloro-1H-indole-2-carboxamide] | not active | 
3 | COC(=O)c1ccc2[nH]c(C(=O)Nc3cc(C(F)(F)F)cc(C(F)(F)F)c3)cc2c1 [Example 1-100, methyl 2-((3,5-bis(trifluoromethyl)phenyl)carbamoyl)-1H-indole-5-carboxylate] | 46.12% | 
4 | O=C(O)c1ccc2[nH]c(C(=O)Nc3cc(C(F)(F)F)cc(C(F)(F)F)c3)cc2c1 [Example 1-101, 2-((3,5-bis(trifluoromethyl)phenyl)carbamoyl)-1H-indole-5-carboxylic acid] | 57.61% | 
5 | O=C(Nc1cc(C(F)(F)F)cc(C(F)(F)F)c1)c1cc2cc(C(F)(F)F)ccc2[nH]1 [Example 1-102, N-(3,5-bis(trifluoromethyl)phenyl)-5-(trifluoromethyl)-1H-indole-2-carboxamide] | 35.11% | 
6 | Cc1cc(C)cc(NC(=O)c2cc3cc(F)ccc3[nH]2)c1 [Example 1-103, N-(3,5-dimethylphenyl)-5-fluoro-1H-indole-2-carboxamide] | 75.43% | 
7 | Cc1cc(C)cc(NC(=O)c2cc3ccccc3[nH]2)c1 [Example 1-104, N-(3,5-dimethylphenyl)-1H-indole-2-carboxamide] | 66.73% | 
8 | O=C(Nc1ccc(O)c(O)c1)c1c[nH]c2ccccc12 [Example 1-105, N-(3,4-dihydroxyphenyl)-1H-indole-3-carboxamide] | 39.17% | 
9 | O=C(Cc1c[nH]c2ccccc12)Nc1ccc(O)c(O)c1 [Example 1-106, N-(3,4-dihydroxyphenyl)-2-(1H-indol-3-yl)acetamide] | 62.00% | 
10 | O=C(Cc1c[nH]c2ccccc12)NCc1ccc(O)c(O)c1 [Example 1-107, N-(3,4-dihydroxybenzyl)-2-(1H-indol-3-yl)acetamide] | 88.12% | 
11 | O=C(CCc1c[nH]c2ccccc12)Nc1ccc(O)c(O)c1 [Example 1-108, N-(3,4-dihydroxyphenyl)-3-(1H-indol-3-yl)propanamide] | 76.29% | 
12 | O=C(Nc1ccc(O)c(O)c1)c1cc2ccccc2[nH]1 [Example 1-109, N-(3,4-dihydroxyphenyl)-1H-indole-2-carboxamide] | not active | 
13 | O=C(Nc1ccc(O)c(O)c1)c1cc2cc(F)ccc2[nH]1 [Example 1-110, N-(3,4-dihydroxyphenyl)-5-fluoro-1H-indole-2-carboxamide] | 28.85% | 
14 | O=C(NCc1ccc(O)c(O)c1)c1cc2cc(F)ccc2[nH]1 [Example 1-111, N-(3,4-dihydroxybenzyl)-5-fluoro-1H-indole-2-carboxamide] | 54.41% | 
15 | O=C(Nc1cc(O)cc(O)c1)c1cc2cc(F)ccc2[nH]1 [Example 1-112, N-(3,5-dihydroxyphenyl)-5-fluoro-1H-indole-2-carboxamide] | not active | 
16 | O=C(Nc1cc(C(F)(F)F)cc(C(F)(F)F)c1)c1cc2cc(F)c(F)cc2[nH]1 [Example 1-113, N-(3,5-bis(trifluoromethyl)phenyl)-5,6-difluoro-1H-indole-2-carboxamide] | 42.48% | 
17 | Cn1c(C(=O)Nc2cc(C(F)(F)F)cc(C(F)(F)F)c2)cc2cc(F)c(F)cc21 [Example 1-114, N-(3,5-bis(trifluoromethyl)phenyl)-5,6-difluoro-1-methyl-1H-indole-2-carboxamide] | 48.24% | 
18 | O=C(Cc1c[nH]c2ccccc12)OCc1ccc([N+](=O)[O-])cc1 [Example 1-115, 4-nitrobenzyl 2-(1H-indol-3-yl)acetate] | 55.24% | 
19 | COc1ccc(COC(=O)c2cc3ccccc3[nH]2)cc1 [Example 1-116, 4-methoxybenzyl 1H-indole-2-carboxylate] | 52.66% | 
20 | COc1ccc(COC(=O)CCCc2c[nH]c3ccccc23)cc1 [Example 1-117, 4-methoxybenzyl 4-(1H-indol-3-yl)butanoate] | 72.65% | 
21 | O=C(Oc1cc(C(F)(F)F)cc(C(F)(F)F)c1)c1cc2cc(F)ccc2[nH]1 [Example 1-118, 3,5-bis(trifluoromethyl)phenyl 5-fluoro-1H-indole-2-carboxylate] | 49.17% | 
22 | O=C(CCCC[C@@H]1SC[C@@H]2NC(=O)N[C@@H]21)NNC(=O)c1ccc2[nH]c(C(=O)Nc3cc(C(F)(F)F)cc(C(F)(F)F)c3)cc2c1 [Example 1-119, N-(3,5-bis(trifluoromethyl)phenyl)-5-(2-(5-((3aS,4S,6aR)-2-oxohexahydro-1H-thieno[3,4-d]imidazol-4-yl)pentanoyl)hydrazine-1-carbonyl)-1H-indole-2-carboxamide] | 27.26% | 
23 | O=c1[nH]cc(F)c(=O)[nH]1 [Example 5-FU, reference compound] |  | apoptosis, cancer cells [1]: induced apoptosis in both normal and cancer cells; apoptosis, normal cells [2]: induced apoptosis in both normal and cancer cells; cell cycle arrest, normal cells [3]: arrested the cell cycle at the G0/G1 phase in normal cells; cell cycle arrest, cancer cells [4]: at the Sub G1 phase in cancer cells
